Measurements published in paper PMC11768629, “Potential Interaction of Pinocembrin with Drug Transporters and Hepatic Drug-Metabolizing Enzymes” (Pharmaceuticals, 2025).

Key:
[1] = molecular target: T1, hMATE1 (Homo sapiens, UniProt Q96FL8); assay: Cis-inhibition assay, 3H-MPP+ uptake in hMATE1-CHO-K1 cells; type: cell-based; details: pinocembrin, pH 8.5
T1 construct: host or cells: CHO-K1
Procedure: (§1) Next, the effects of pinocembrin on the transport function of renal drug transporters, including hOAT1, hOAT3, hOCT1, hOCT2, hMATE1, and hMATE2, were determined.
(§2) A cell monolayer comprising hOAT1-MDCK, hOAT3-MDCK, hOCT1-CHO-K1, hOCT2-CHO-K1, hMATE1-CHO-K1, hMATE2-CHO-K1, and mock cells were utilized for the uptake experiments. The cells were washed three times with a buffer containing (in mM) 140 NaCl, 5 KCl, 0.4 MgSO4, 0.5 MgCl2, 1 CaCl2, 0.3 Na2HPO4, 0.4 KH2PO4, 6 D-glucose, and 4 NaHCO3 at pH 7.4 and incubated at 37 °C for 15 min. After incubation, the hOAT1-MDCK and hOAT3-MDCK cells were incubated for 10 min with ^3H-PAH and ^3H-estrone sulfate, a substrate of hOAT1 and hOAT3, respectively. The hOCT1-CHO-K1 and hOCT2-CHO-K1 cells were incubated with ^3H-MPP^+, a substrate of OCT1 and OCT2, for five minutes. The functions of MATE1 and MATE2 were determined by incubating the hMATE1-CHO-K1 and hMATE2-CHO-K1 cells with a buffer containing ^3H-MPP^+, a substrate of MATE1 and MATE2, at pH 8.5 for five minutes. The cells were washed three times with an ice-cold buffer to stop the transport function. The cells were lyzed with 0.4 N NaOH for at least four hours. The samples were collected and transferred to vials containing a liquid scintillation cocktail to measure radioactivity by a β-counter (Packard BioScience, Wellesley, MA, USA). […]

[2] = molecular target: T2, hOCT2 (Homo sapiens, UniProt O15244); assay: Cis-inhibition assay, 3H-MPP+ uptake in hOCT2-CHO-K1 cells; type: cell-based; details: pinocembrin
T2 construct: host or cells: CHO-K1
T2 sequence (O15244 whole entry): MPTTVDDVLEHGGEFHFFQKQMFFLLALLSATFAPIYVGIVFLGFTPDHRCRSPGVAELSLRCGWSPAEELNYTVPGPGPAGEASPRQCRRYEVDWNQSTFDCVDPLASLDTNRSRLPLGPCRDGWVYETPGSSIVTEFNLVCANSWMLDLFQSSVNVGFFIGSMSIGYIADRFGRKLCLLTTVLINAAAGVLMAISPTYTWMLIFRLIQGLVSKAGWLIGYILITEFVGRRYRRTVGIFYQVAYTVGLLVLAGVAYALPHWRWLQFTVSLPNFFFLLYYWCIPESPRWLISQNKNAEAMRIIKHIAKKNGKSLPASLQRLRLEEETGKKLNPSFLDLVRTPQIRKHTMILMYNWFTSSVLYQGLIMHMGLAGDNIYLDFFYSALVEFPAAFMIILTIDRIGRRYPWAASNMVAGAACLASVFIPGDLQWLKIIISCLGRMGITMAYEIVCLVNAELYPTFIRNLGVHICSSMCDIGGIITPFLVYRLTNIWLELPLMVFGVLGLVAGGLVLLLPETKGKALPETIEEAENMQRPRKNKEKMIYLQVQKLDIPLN
Procedure: as §1, §2

[3] = molecular target: T3, CYP2C19 (Homo sapiens, UniProt P33261); assay: Cell-free CYP450 inhibition assay, CYP2C19; type: biochemical; details: cell-free fluorescent probe assay
T3 construct: purchased Life Technologies
T3 sequence (P33261 whole entry): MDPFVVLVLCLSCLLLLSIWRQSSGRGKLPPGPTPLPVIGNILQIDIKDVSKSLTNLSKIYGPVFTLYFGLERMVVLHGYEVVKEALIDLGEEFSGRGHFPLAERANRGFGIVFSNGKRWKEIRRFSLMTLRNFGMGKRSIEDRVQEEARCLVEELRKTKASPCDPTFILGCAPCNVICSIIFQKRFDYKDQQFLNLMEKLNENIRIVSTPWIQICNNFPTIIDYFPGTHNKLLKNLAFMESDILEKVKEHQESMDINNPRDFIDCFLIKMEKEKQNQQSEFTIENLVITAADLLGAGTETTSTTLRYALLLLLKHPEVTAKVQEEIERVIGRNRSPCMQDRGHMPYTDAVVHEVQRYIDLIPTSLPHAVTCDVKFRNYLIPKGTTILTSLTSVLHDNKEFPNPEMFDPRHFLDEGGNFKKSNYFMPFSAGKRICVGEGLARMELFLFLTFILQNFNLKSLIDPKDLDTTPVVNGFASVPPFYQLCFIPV
Procedure: To determine whether pinocembrin influences the catalytic activity of CYP450 enzymes, fluorescent probe reaction assays were performed using varying concentrations of pinocembrin. […] In addition, molecular docking was conducted to better understand the binding mode and interactions between pinocembrin and human CYP2C19.
The CYP450 inhibitory activity of pinocembrin was determined using a P450 screening kit (Life Technologies; Carlsbad, CA, USA). Varied concentrations of pinocembrin were prepared in methanol. […] The fluorescence intensities were monitored every minute for 60 min at room temperature. The percentage of inhibition was calculated according to the following equation: % Inhibition=(1−X−B/A−B)×100% where X is the fluorescence intensity observed in the presence of pinocembrin.

[4] = tested on: CYP1A2; details: cited from earlier work
[5] = tested on: hOAT3-MDCK cells; assay: Cell viability assay (MTT) in hOAT3-MDCK cells; type: cell-based, canine; details: pinocembrin 1, 10 and 50 μM, compared to vehicle-treated cells
Procedure: (§3) The hOAT1-MDCK cells and hOAT3-MDCK cells were treated with 1, 10, and 50 μM pinocembrin for 24 h, followed by a measurement of ^3H-PAH and ^3H-estrone sulfate cellular accumulation. […] The inhibitory effect of pinocembrin occurred in a concentration-dependent manner.
(§4) We determined whether the inhibitory effect of pinocembrin on hOAT1 and hOAT3. We studied whether pinocembrin could reduce the renal toxicity of tenofovir, a substrate of hOAT1 and hOAT3 known for inducing renal tubular dysfunction.
(§5) The confluent cells in 96-well plates were treated with pinocembrin for 48 h at 37 °C. After that, the cells were incubated with 0.5 mg/mL MTT solution for four hours. The MTT solution was removed, and DMSO (100 µL) was added to dissolve the crystal formazan. The formazan content was detected at a wavelength of 570 nm using a microplate reader. Cell viability was reported as a percentage of the vehicle-treated cells.

[6] = molecular target: T4, hOAT3 (Homo sapiens, UniProt Q8TCC7); assay: Cis-inhibition assay, 3H-estrone sulfate uptake in hOAT3-MDCK cells; type: cell-based; details: 10 µM pinocembrin, compared with vehicle control
T4 construct: host or cells: MDCK
T4 sequence (Q8TCC7 1-542): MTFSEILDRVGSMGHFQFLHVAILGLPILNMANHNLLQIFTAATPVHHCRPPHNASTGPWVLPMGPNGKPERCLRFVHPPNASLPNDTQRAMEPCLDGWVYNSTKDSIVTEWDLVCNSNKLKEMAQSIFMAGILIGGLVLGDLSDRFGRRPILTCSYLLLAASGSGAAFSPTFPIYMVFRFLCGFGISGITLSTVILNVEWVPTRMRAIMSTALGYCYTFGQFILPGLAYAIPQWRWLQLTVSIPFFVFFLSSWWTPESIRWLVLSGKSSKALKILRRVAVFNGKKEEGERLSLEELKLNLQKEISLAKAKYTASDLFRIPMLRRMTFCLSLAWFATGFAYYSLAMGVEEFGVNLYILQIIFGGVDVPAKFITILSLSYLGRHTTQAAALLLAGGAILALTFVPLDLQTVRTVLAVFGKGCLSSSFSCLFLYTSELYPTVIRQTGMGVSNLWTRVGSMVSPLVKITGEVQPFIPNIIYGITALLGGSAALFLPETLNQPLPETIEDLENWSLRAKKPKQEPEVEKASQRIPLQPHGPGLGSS
Procedure: as §1, §2

[7] = molecular target: T5, P-gp (Homo sapiens, UniProt P08183); assay: P-gp-mediated 3H-digoxin transepithelial transport in Caco-2 cell monolayers; type: cell-based; details: 10 µM pinocembrin, 0-120 min, compared with vehicle control
T5 construct: Caco-2 cell monolayers, which express both P-gp and BCRP; host or cells: Caco-2
T5 sequence (P08183 whole entry): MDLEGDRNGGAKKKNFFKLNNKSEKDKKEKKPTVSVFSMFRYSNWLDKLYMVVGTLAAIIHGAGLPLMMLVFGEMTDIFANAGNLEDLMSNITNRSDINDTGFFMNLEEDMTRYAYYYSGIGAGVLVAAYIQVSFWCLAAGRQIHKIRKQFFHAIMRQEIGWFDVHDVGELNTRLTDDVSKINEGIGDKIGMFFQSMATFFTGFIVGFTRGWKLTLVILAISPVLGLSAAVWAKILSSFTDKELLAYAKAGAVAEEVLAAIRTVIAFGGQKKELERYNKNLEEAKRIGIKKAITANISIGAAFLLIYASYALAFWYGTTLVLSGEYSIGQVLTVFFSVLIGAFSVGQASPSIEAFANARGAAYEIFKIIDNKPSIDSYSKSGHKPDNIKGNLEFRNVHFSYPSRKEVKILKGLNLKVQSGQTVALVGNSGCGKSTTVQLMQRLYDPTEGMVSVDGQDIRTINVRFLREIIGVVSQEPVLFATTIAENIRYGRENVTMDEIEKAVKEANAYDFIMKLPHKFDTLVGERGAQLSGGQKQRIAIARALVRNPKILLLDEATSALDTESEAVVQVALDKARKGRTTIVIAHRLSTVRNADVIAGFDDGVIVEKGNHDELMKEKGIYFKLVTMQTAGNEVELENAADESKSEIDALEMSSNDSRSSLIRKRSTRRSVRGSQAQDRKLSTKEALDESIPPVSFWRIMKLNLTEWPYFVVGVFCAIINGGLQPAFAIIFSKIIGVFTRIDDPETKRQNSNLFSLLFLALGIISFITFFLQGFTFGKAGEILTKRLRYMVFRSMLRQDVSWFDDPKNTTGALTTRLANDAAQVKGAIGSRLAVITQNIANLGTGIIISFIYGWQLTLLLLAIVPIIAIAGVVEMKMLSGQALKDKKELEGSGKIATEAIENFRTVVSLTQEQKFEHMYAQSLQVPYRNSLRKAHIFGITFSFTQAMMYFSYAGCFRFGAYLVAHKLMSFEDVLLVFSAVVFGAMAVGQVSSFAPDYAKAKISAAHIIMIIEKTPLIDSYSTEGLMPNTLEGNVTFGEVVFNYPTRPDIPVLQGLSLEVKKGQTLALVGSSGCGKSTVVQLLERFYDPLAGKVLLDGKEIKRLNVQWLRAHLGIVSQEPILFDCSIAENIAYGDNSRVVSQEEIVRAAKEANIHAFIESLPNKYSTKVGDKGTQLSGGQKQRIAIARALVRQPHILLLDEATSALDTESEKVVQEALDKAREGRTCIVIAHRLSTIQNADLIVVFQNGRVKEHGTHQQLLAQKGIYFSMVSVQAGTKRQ
Procedure: The interactions of pinocembrin with P-gp and BCRP were determined by the measurement of P-gp-mediated ^3H-digoxin transport and BCRP-mediated ^3H-estrone sulfate transport in Caco-2 cell monolayers, which express both P-gp and BCRP [20]. The apical sides of the Caco-2 cell monolayers were incubated with a buffer containing ^3H-digoxin alone, ^3H-digoxin plus 10 µM pinocembrin or ^3H-digoxin plus 100 µM verapamil (P-gp inhibitor).
P-gp- and BCRP-mediated transport were measured by the transepithelial transport of their substrates (^3H-digoxin for P-gp and ^3H-estrone sulfate for BCRP) in Caco-2 cell monolayers. […] Caco-2 cells were cultured on membrane inserts (Corning Inc., Corning, NY, USA) for 21 days. […] The basolateral side was replaced with a transport buffer. The sample from the basolateral side was transferred to vials containing a liquid scintillation cocktail to measure radioactivity by a β-counter (Packard BioScience, Wellesley, MA, USA).

[8] = molecular target: T6, hOCT1 (Homo sapiens, UniProt O15245); assay: Cis-inhibition assay, 3H-MPP+ uptake in hOCT1-CHO-K1 cells; type: cell-based; details: pinocembrin
T6 construct: host or cells: CHO-K1
T6 sequence (O15245 whole entry): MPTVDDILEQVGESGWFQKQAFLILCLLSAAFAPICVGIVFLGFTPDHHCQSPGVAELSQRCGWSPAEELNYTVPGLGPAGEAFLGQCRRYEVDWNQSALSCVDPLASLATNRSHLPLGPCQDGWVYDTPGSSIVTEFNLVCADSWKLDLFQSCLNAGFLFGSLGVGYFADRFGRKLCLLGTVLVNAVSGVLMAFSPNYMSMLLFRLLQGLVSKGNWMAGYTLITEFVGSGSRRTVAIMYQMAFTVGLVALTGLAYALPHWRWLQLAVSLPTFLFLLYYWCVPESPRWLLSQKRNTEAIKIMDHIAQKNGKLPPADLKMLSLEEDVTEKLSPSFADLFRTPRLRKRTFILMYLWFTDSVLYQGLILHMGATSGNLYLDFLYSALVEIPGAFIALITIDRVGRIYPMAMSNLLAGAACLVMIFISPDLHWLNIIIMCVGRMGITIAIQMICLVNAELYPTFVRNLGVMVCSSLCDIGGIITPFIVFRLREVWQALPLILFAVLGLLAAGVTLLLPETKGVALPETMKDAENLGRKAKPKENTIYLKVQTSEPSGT
Procedure: as §1, §2

[9] = tested on: CYP2D6; set-up: method as in PMID 34069400, doi:10.5562/cca3652, PMID 26626242; details: cited from earlier work
[10] = tested on: hOAT1-MDCK cells; assay: Cell viability assay (MTT) in hOAT1-MDCK cells; type: cell-based, canine
Procedure: as §3, §4, §5

[11] = molecular target: T7, BCRP (Homo sapiens, UniProt Q9UNQ0); assay: BCRP-mediated 3H-estrone sulfate transepithelial transport in Caco-2 cell monolayers; type: cell-based; details: pinocembrin, compared with vehicle control
T7 construct: Caco-2 cell monolayers, which express both P-gp and BCRP; host or cells: Caco-2
T7 sequence (Q9UNQ0 whole entry): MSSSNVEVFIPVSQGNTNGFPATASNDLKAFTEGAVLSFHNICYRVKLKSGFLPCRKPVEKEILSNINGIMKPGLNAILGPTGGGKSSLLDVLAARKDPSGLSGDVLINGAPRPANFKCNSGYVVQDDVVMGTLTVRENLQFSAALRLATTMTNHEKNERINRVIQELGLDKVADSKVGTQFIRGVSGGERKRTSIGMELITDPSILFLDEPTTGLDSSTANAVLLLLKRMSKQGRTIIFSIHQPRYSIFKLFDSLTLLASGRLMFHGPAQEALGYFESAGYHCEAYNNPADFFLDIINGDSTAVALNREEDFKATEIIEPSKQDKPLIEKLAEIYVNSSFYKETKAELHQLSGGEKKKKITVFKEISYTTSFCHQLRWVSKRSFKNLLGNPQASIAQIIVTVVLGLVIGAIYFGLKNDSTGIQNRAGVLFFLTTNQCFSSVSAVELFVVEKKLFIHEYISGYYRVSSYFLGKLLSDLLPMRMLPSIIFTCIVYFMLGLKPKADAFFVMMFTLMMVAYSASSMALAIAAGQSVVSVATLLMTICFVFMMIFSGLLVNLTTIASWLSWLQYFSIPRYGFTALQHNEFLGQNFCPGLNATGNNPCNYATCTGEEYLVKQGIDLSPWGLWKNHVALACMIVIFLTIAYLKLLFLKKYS
Procedure: The interactions of pinocembrin with P-gp and BCRP were determined by the measurement of P-gp-mediated ^3H-digoxin transport and BCRP-mediated ^3H-estrone sulfate transport in Caco-2 cell monolayers, which express both P-gp and BCRP [20].
P-gp- and BCRP-mediated transport were measured by the transepithelial transport of their substrates (^3H-digoxin for P-gp and ^3H-estrone sulfate for BCRP) in Caco-2 cell monolayers. […] Caco-2 cells were cultured on membrane inserts (Corning Inc., Corning, NY, USA) for 21 days. Cell monolayers showing transepithelial electrical resistance values > 600 Ω.cm^2 were included in the experiment. […] The basolateral side was replaced with a transport buffer. The sample from the basolateral side was transferred to vials containing a liquid scintillation cocktail to measure radioactivity by a β-counter (Packard BioScience, Wellesley, MA, USA).

T1 sequence (Q96FL8 whole entry): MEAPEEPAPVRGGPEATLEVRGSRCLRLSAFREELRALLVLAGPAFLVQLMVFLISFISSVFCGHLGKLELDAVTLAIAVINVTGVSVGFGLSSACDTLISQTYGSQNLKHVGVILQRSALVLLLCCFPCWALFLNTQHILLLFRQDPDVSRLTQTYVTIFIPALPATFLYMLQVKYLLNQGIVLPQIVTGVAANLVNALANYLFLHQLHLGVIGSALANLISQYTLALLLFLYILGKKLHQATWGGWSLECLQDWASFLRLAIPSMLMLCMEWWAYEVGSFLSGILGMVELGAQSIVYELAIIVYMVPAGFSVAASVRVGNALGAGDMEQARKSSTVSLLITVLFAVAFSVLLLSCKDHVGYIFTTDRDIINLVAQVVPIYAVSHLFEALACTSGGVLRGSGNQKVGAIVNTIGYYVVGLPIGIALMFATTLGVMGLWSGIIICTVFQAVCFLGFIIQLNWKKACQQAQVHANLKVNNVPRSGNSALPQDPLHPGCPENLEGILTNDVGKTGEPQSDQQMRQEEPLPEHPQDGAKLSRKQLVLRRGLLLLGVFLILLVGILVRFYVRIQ

For `O=C1C[C@@H](c2ccccc2)Oc2cc(O)cc(O)c21` [pinocembrin], the “hMATE1-mediated uptake of 3H-MPP+” value [1] was “did not alter”, the “hOCT2-mediated uptake of 3H-MPP+” value [2] was “did not alter” and the IC50 ([3]; BACULOSOMES) was 4.5 µM. The IC50 at 60 min ([3]; human, CYP2C19 BACULOSOMES (cell-free recombinant enzyme)) was 4.49 µM, the “mechanism of CYP1A2 inhibition” value [4] was “competitive” and the “effect on the activity of CYP1A2” value ([4]; concentrations of 1–5 µM) was “shows an inhibitory effect”. The cell viability [5] was “did not affect cell viability”, the “3H-estrone sulfate cellular accumulation” value [6] was “significantly decreased” and the “transport of 3H-digoxin from the apical to basolateral side” value [7] was “did not alter”. The “hOCT1-mediated uptake of 3H-MPP+” value [8] was “did not alter”, the “effect on the activity of CYP2D6” value [9] was “inhibits the activities” and the cell viability ([10]; pinocembrin 1, 10 and 50 μM, compared to vehicle-treated cells) was “did not affect cell viability”. For the same molecule, the “cell viability on co-treatment with tenofovir” value ([10]; tenofovir plus pinocembrin, 48 h, compared with tenofovir-treated cells alone) was “considerably increased cell viability” and the “transport of 3H-estrone sulfate from the apical to basolateral side” value [11] was “did not affect”.
